Data from ChEMBL document CHEMBL1130502, “Lipopeptide antifungal agents: Amine conjugates of the semi-synthetic pneumocandins L-731,373 and L-733,560” (Bioorg Med Chem Lett, 1997).
In brackets after ≈: the same amount, converted by molar mass.

Legend:
1,3-beta-glucan synthase = 1,3-beta-glucan synthase (Candida glabrata, UniProt F5BCZ9); assay: Inhibition of 1,3-beta-glucan synthase; design: species or system Candida glabrata CBS 138
Candida albicans [1] = assay: Tested for minimum fungicidal concentration (MFC) against Candida albicans (MY 1055); format: functional
Candida albicans [2] = assay: Tested for in vitro minimum fungicidal concentration (MFC) against C. albicans; 0.25-1; format: functional
[3] = tested on: Meyerozyma guilliermondii; assay: Tested for in vitro minimum fungicidal concentration (MFC) against Candida guilliermondii 1-16; format: functional
Pichia kudriavzevii = assay: Tested for in vitro minimum fungicidal concentration (MFC) against C. krusei; 2-4; format: functional
Kluyveromyces marxianus = assay: Tested for in vitro minimum fungicidal concentration (MFC) againstC. pseudotropicalis; 0.25-1; format: functional
Nakaseomyces glabratus = assay: Tested for in vitro minimum fungicidal concentration (MFC) against C. glabrata; 1-4; format: functional
Candida parapsilosis = assay: Tested for in vitro minimum fungicidal concentration (MFC) against C. parapsilosis; 0.25-1; format: functional
Candida tropicalis = assay: Tested for in vitro minimum fungicidal concentration (MFC) against C. tropicalis; 0.25-1; format: functional
Clavispora lusitaniae = assay: Tested for in vitro minimum fungicidal concentration (MFC) against Candida lusitaniae 0.125-1; format: functional
Cryptococcus neoformans = assay: Tested for in vitro minimum fungicidal concentration (MFC) against C. neoformans; 8-32; format: functional
Mus musculus [4] = species on record: Mus musculus; assay: […] anti-candida activity expressed as ED99.9 in a mouse model of disseminated candidiasis (TOKA); format: functional
Mus musculus [5] = assay: In vivo effective intraperitoneal dose to achieve least 50% survival in a mouse model of disseminated aspergillosis; format: functional; details: ip
Mus musculus [6] = species on record: Mus musculus; assay: Percentage of mice with complete eradication of candida in kidneys; format: functional, Kidney
[7] = Acute toxicity in mice after intravenous administration; details: mouse, in vivo

Sequence of 1,3-beta-glucan synthase (F5BCZ9 whole entry): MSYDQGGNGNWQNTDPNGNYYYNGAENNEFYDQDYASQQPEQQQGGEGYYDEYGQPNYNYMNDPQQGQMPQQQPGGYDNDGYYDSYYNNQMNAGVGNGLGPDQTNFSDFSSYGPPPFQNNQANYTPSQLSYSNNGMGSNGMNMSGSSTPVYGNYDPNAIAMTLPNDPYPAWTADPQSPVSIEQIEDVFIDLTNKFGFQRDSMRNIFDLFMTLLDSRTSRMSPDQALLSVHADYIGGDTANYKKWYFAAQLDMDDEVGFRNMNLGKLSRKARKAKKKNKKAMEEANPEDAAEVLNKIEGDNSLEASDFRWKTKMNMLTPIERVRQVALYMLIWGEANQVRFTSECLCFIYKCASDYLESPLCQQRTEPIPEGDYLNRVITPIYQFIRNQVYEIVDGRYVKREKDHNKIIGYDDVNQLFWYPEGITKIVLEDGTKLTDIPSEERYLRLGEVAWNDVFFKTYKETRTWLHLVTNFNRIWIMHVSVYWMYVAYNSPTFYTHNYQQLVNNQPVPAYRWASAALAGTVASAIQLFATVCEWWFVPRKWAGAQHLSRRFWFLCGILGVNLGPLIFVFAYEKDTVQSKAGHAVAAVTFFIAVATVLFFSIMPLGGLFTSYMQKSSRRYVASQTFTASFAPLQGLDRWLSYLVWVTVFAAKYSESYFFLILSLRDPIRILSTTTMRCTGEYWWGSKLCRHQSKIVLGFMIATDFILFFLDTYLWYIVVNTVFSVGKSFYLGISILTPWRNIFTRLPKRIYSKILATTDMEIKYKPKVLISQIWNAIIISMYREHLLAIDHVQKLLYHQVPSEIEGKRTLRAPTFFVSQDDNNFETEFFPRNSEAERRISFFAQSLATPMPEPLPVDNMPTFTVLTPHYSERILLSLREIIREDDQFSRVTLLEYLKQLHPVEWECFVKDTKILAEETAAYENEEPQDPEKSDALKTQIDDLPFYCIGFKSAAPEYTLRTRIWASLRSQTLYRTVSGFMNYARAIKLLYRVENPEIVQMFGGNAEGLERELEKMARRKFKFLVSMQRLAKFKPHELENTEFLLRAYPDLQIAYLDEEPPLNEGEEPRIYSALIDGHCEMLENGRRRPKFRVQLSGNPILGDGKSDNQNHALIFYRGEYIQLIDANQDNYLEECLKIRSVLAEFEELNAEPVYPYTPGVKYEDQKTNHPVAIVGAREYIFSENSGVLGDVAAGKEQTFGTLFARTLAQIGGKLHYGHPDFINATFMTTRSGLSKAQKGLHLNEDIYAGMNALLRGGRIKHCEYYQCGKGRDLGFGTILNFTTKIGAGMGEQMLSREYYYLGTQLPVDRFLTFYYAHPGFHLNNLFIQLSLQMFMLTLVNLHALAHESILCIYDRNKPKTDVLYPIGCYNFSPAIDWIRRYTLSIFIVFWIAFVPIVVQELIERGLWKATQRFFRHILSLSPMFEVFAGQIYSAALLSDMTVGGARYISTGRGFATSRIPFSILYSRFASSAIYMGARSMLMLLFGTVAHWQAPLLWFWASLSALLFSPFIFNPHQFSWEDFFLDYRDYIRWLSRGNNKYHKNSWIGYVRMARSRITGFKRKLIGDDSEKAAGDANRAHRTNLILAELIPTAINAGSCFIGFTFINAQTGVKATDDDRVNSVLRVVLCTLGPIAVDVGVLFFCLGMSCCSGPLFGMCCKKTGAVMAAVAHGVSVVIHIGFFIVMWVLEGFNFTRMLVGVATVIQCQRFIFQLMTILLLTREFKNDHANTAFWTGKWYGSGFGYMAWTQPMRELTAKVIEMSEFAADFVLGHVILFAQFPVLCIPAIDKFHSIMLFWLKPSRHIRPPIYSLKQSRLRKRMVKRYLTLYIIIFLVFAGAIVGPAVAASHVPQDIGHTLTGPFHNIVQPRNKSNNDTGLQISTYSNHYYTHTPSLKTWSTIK

Compound: CCC(C)CC(C)CCCCCCCCC(=O)NC1C[C@@H](O)[C@@H](OCCN)NC(=O)C2CN(C[C@@H]2O)C(=O)[C@H]([C@H](O)CCNC(=O)[C@@H](N)CCCN)NC(=O)[C@H]([C@H](O)[C@@H](O)c2ccc(O)cc2)NC(=O)C2C[C@@H](O)CN2C(=O)[C@H]([C@@H](C)O)NC1=O (stereo not given in full)
- IC50 (1,3-beta-glucan synthase): 1.5 nM
- MFC (Candida albicans [1]): < 0.06 µg/mL
- MFC90 (Candida albicans [2]): 1 µg/mL (≈ 0.827 µM)
- MFC90 [3]: 8 µg/mL (≈ 6.62 µM)
- MFC90 (Pichia kudriavzevii): 4 µg/mL (≈ 3.31 µM)
- MFC90 (Kluyveromyces marxianus): 1 µg/mL (≈ 0.827 µM)
- MFC90 (Nakaseomyces glabratus): 2 µg/mL (≈ 1.65 µM)
- MFC90 (Candida parapsilosis): 1 µg/mL (≈ 0.827 µM)
- MFC90 (Candida tropicalis): 1 µg/mL (≈ 0.827 µM)
- MFC90 (Clavispora lusitaniae): 0.5 µg/mL (≈ 0.414 µM)
- MFC90 (Cryptococcus neoformans): 32 µg/mL (≈ 26.5 µM)
- ED99.9 (Mus musculus [4]): 0.09 mg/kg
- ED50 (Mus musculus [5]): 0.03 mg/kg
- Sterilized (Mus musculus [6]): 70%
- Dose [7]: 80 mg/kg
